IC50 and EC50 data for 47 compounds are collected here from patent US20250136592A1, “C-LINKED INHIBITORS OF ENL/AF9 YEATS” (Bridge Medicines, priority 2021, published 2025).

Molecules are shown by their SMILES. pEC50, pIC50: −log10 of the molar value. Read-outs that look alike come from different tables or passages of the source.

The target of one assay is ENL YEATS domain (Homo sapiens (Human), UniProt Q03111). In words: TR-FRET ENL Screening Assay. The conditions noted are these: 6xHIS ENL YEATS domain binding to H3K9cr peptide. The method, then: Compounds of the invention were tested in a TR-FRET ENL Screening Assay. TR-FRET (time-resolved fluorescence energy transfer) can be used to quantify ENL YEATS domain binding to a crotonylated histone peptide (H3K9cr, aa1-20). Streptavidin-Europium (Eu) chelate binds the biotinylated peptide, while Anti-6×HIS ULight™ binds 6×HIS-ENL. When Eu chelate is excited at 320 nm, fluorescence resonance energy transfer (FRET) occurs if Eu and ULight are made proximal by ENL binding to the acyl-peptide.
Low control (LC) wells received 5 μL of assay buffer instead of ENL protein. […] The response at each compound concentration minus the LC value was converted to percent inhibition of the vehicle control group response (HC-LC).
For orientation: In TR-FRET formats the signal depends on donor and acceptor labels being close together.

Assay [1] has as its system MV4:11 (MLL-AF4 MLL) cells. The assay can be described thus: Cell viability assay (CellTiter-Glo), 12 days. The conditions noted are these: MV4;11 cells, 12 day, read-out: CTG_MV4, 11 12 DAY_EC50. Type of assay: cell-based. The protocol: The assays were conducted over 12 days and the cells being split on days 4 and 8. […] Blank wells received cell culture medium. Plates were incubated for 4 days at 37° C. with 5% CO2. On days 4 and day 8 the cells were split and incubated for a further 4 days whilst an aliquot of cells were taken for the CTG readout. For the cell splitting, 270 nL of compounds or DMSO was added to a new 96 well cell culture plate to which 90 μL of medium plus 10 μL of cells from the original assay plate (after mixing) or 100 μL of medium (Blank wells) was added. This was repeated on day 8.
Cell viability was assessed using the CellTiter-Glo® homogeneous luminescent assay kit (Promega, G9243), according to the manufacturer's instructions. This quantifies ATP, which indicates the presence of metabolically active cells. […] The resulting data were analyzed as follows:
where vehicle are cells treated with 0.3% DMSO, Blank is culture medium. IC50 determinations were calculated by fitting the curve using XLfit (v5.3.1.3): Y=Bottom+(Top−Bottom)/(1+10^((LogIC50−X)*HillSlope)).

A word on the pIC50: it is −log10 of the IC50, conventionally taken in molar units. Lower therefore signals a high IC50.

Chain of ENL YEATS domain (Q03111 1-138): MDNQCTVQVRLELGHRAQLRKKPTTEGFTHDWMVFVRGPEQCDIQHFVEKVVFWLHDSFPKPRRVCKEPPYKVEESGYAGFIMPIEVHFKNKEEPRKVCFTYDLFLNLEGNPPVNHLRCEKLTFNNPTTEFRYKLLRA

The compound `CN1CCC[C@@H]1c1cc2cnc(NC(=O)c3ccn4c(C(F)(F)F)ncc4c3)cc2[nH]1` [Example 35] showed a pIC50 at ENL YEATS domain of 6.94. In assay [1] (Homo sapiens, 288 h), the pEC50 is 6.57.
The like results for `Cc1cnn2ccc(C(=O)Nc3cc4[nH]c([C@H]5CCCN5C)cc4cn3)cc12` [Example 36] were, in that order, 7.37 and 6.07.
For `CN1CCC[C@@H]1c1cc2cnc(NC(=O)c3ccc4c(C(F)(F)F)ncn4c3)cc2[nH]1` [Example 37], in that order: 7.26 and 7.33.
For `CN1CCC[C@@H]1c1cc2cnc(NC(=O)c3ccc4cnn(C)c4c3)cc2[nH]1` [Example 38], in that order: 7.03 and 7.06.
`CN1CCC[C@@H]1c1cc2cnc(NC(=O)c3ccc4c(C(F)(F)F)nn(C)c4c3)cc2[nH]1` [Example 39] had a pIC50 on ENL YEATS domain of 7.37. Besides, the pEC50 in assay [1] (Homo sapiens, 288 h) was 5.56.
For `Cc1nn(C)c2cc(C(=O)Nc3cc4[nH]c([C@H]5CCCN5C)cc4cn3)ccc12` [Example 40], the pIC50 on ENL YEATS domain was 7.47. Moreover, the pEC50 in assay [1] (Homo sapiens, 288 h) is 7.06.
For `CN1CCC[C@@H]1c1cc2cnc(NC(=O)c3ccc4c(N)nccc4c3)cc2[nH]1` [Example 41], in that order: 7.85 and 7.14.
For `Cc1ncc2cc(C(=O)Nc3cc4[nH]c([C@H]5CCCN5C)cc4cn3)ccn12` [Example 42], in that order: 7.08 and 6.93.
For `CN1CCC[C@@H]1c1cc2cnc(NC(=O)c3ccc4[nH]nc(Cl)c4c3)cc2[nH]1` [Example 43], in that order: 7.43 and 6.59.
In turn, `CN1CCC[C@@H]1c1cc2cnc(NC(=O)c3ccn4ccnc4c3)cc2[nH]1` [Example 45] showed a pIC50 at ENL YEATS domain of 6.53. In addition, the pEC50 in assay [1] (Homo sapiens, 288 h) was 5.16.
For `CN1CCC[C@@H]1c1cc2cnc(NC(=O)c3ccc4[nH]nc(F)c4c3)cc2[nH]1` [Example 46], in that order: 7.21 and 6.59.
The like results for `CNc1c(OC)cnc2cc(C(=O)Nc3cc4[nH]c([C@H]5CCCN5C)cc4cn3)ccc12` [Example 47] were, in that order, 7.55 and 6.13.
Turning to `CN1CCC[C@@H]1c1cc2cnc(NC(=O)c3ccc4c(cnn4C)c3)cc2[nH]1` [Example 49], the pIC50 on ENL YEATS domain is 7.59. In addition, the pEC50 in assay [1] (Homo sapiens, 288 h) was 5.84.
With `CNc1nn(C)c2cc(C(=O)Nc3cc4[nH]c([C@H]5CCCN5C)cc4cn3)ccc12` [Example 50], at ENL YEATS domain, the pIC50 is 6.99. Besides, in assay [1] (Homo sapiens, 288 h), the pEC50 was 5.63.
For the compound `COCCNc1nn(C)c2cc(C(=O)Nc3cc4[nH]c([C@H]5CCCN5C)cc4cn3)ccc12` [Example 51], the negative logarithm of the IC50 (pIC50) at ENL YEATS domain was 7.00. In assay [1] (Homo sapiens, 288 h), the pEC50 is 5.92.
For `COc1c(C(=O)Nc2cc3[nH]c([C@H]4CCCN4C)cc3cn2)ccc2c(C)n[nH]c12` [Example 54], on ENL YEATS domain, the pIC50 was 6.50. The pEC50 in assay [1] (Homo sapiens, 288 h) was 6.21.
The like results for `CN1CCC[C@@H]1c1cc2cnc(NC(=O)c3ccc4c(F)nn(C)c4c3)cc2[nH]1` [Example 55] were, in that order, 7.74 and 6.16.
The like results for `Cc1nc2ccc(C(=O)Nc3cc4[nH]c([C@H]5CCCN5C)cc4cn3)cc2o1` [Example 56] were, in that order, 6.88 and 5.32.
The like results for `CN1CCC[C@@H]1c1cc2cnc(NC(=O)c3ccc4c(c3)nnn4C)cc2[nH]1` [Example 57] were, in that order, 6.97 and less than 4.52.
For `Cc1[nH]c2ccc(C(=O)Nc3cc4[nH]c([C@H]5CCCN5C)cc4cn3)cc2c1C` [Example 58], the pIC50 at ENL YEATS domain is 6.68. In assay [1] (Homo sapiens, 288 h), the pEC50 is 5.07.
For `CN1CCC[C@@H]1c1cc2cnc(NC(=O)c3ccc4c(c3)ncn4C)cc2[nH]1` [Example 59], in that order: 7.28 and 4.80.
For `CN1CCC[C@@H]1c1cc2cnc(NC(=O)c3ccc4c(ccn4C)c3)cc2[nH]1` [Example 60], in that order: 6.83 and 6.53.
For `Cc1nc2cc(C(=O)Nc3cc4[nH]c([C@H]5CCCN5C)cc4cn3)ccc2[nH]1` [Example 61], in that order: 7.05 and 5.54.
For the compound `CN1CCC[C@@H]1c1cc2cnc(NC(=O)c3ccc4ccn(C)c4c3)cc2[nH]1` [Example 62], the pIC50 on ENL YEATS domain was 6.33. Moreover, in assay [1] (Homo sapiens, 288 h), the pEC50 is 6.22.
For the compound `CN1CCC[C@@H]1c1cc2cnc(NC(=O)c3ccc4ncn(C)c4c3)cc2[nH]1` [Example 63], the pIC50 on ENL YEATS domain was 7.02. Besides, in assay [1] (Homo sapiens, 288 h), the pEC50 was 5.15.
The like results for `Cc1nnn2cc(C(=O)Nc3cc4[nH]c([C@H]5CCCN5C)cc4cn3)ccc12` [Example 64] were, in that order, 7.04 and 6.11.
The like results for `Cc1nccc2cc(C(=O)Nc3cc4[nH]c([C@H]5CCCN5C)cc4cn3)ccc12` [Example 65] were, in that order, 7.74 and 7.27.
The like results for `Cc1ccc2cc(C(=O)Nc3cc4[nH]c([C@H]5CCCN5C)cc4cn3)ccc2n1` [Example 66] were, in that order, 7.54 and 5.79.
Consider `CC(C)c1ncc2cc(C(=O)Nc3cc4[nH]c([C@H]5CCCN5C)cc4cn3)ccn12` [Example 67], for which the pIC50 on ENL YEATS domain is 7.12. For the same compound, in assay [1] (Homo sapiens, 288 h), the pEC50 was 7.42.
The like results for `CN1CCC[C@@H]1c1cc2cnc(NC(=O)c3ccn4c(C5CC5)ncc4c3)cc2[nH]1` [Example 68] were, in that order, 7.46 and 7.32.
`Cc1ncn2ccc(C(=O)Nc3cc4[nH]c([C@H]5CCCN5C)cc4cn3)cc12` [Example 70] had a pIC50 at ENL YEATS domain of 6.96. Also, the pEC50 in assay [1] (Homo sapiens, 288 h) was 6.72.
For `CN1CCC[C@@H]1c1cc2cnc(NC(=O)c3ccc4nnn(C)c4c3)cc2[nH]1` [Example 72], in that order: 6.92 and 5.59.
Take `CN1CCC[C@@H]1c1cc2ncc(NC(=O)c3ccc4c(F)n[nH]c4c3F)cc2[nH]1` [Example 74]: the pIC50 on ENL YEATS domain was 7.10. Further, the pEC50 in assay [1] (Homo sapiens, 288 h) was 5.85.
The like results for `Cc1ncc2c(F)c(C(=O)Nc3cnc4cc([C@H]5CCCN5C)[nH]c4c3)ccn12` [Example 75] were, in that order, 6.90 and 5.62.
On ENL YEATS domain, `Cc1ccc2cc(C(=O)Nc3ccc4cc([C@H]5CCCN5C)[nH]c4c3)c(F)cc2n1` [Example 76] had a pIC50 of 6.87. Also, in assay [1], the pEC50 was 6.14.
At ENL YEATS domain, `CN1CCC[C@@H]1c1cc2cnc(NC(=O)c3ccc4c(C(F)F)nn(C)c4c3)cc2[nH]1` [Example 78, (R)-3-(difluoromethyl)-1-methyl-N-(2-(1-methylpyrrolidin-2-yl)-1H-pyrrolo[3,2-c]pyridin-6-yl)-1H-indazole-6-carboxamide] showed a pIC50 of 7.85. For the same compound, the pEC50 in assay [1] (Homo sapiens, 288 h) is 6.78.
For `CN1CCCC[C@@H]1c1cc2cnc(NC(=O)c3ccc4c(F)nn(C)c4c3)cc2[nH]1` [Example 81, (R)-3-fluoro-1-methyl-N-(2-(1-methylpiperidin-2-yl)-1H-pyrrolo[3,2-c]pyridin-6-yl)-1H-indazole-6-carboxamide], in that order: 7.29 and 6.53.
On ENL YEATS domain, `CN1CCC[C@@H]1c1cc2ncc(NC(=O)c3ccc4cnn(C5CC5)c4c3)cc2[nH]1` [Example 82] showed a pIC50 of 6.99. For the same compound, the pEC50 in assay [1] (Homo sapiens, 288 h) was 6.39.
For `Cc1nccc2ccc(C(=O)Nc3cc4[nH]c([C@H]5CCCN5C)cc4cn3)cc12` [Example 83], in that order: 7.19 and 6.64.
The like results for `CN1CCC[C@@H]1c1cc2cnc(NC(=O)c3ccc4c(cnn4-c4ccncc4)c3)cc2[nH]1` [Example 84] were, in that order, 7.51 and 6.87.
For `Cc1nn(C)c2ccc(C(=O)Nc3cc4[nH]c([C@H]5CCCCN5C)cc4cn3)cc12` [Example 87], in that order: 7.33 and 6.76.
On ENL YEATS domain, `Cc1nccc2ccc(C(=O)Nc3cc4[nH]c([C@H]5CCCCN5C)cc4cn3)cc12` [Example 88] had a pIC50 of 7.33. Besides, in assay [1] (Homo sapiens, 288 h), the pEC50 is 7.16.
The like results for `Cc1ncc2ccc(C(=O)Nc3cc4[nH]c([C@H]5CCCCN5C)cc4cn3)cn12` [Example 89] were, in that order, 6.76 and 6.60.
The like results for `Cc1nc(C)n2cc(C(=O)Nc3cc4[nH]c([C@H]5CCCCN5C)cc4cn3)ccc12` [Example 90] were, in that order, 7.29 and 6.84.
The like results for `Cc1ncn2ccc(C(=O)Nc3cc4[nH]c([C@H]5CCCCN5C)cc4cn3)cc12` [Example 92] were, in that order, 7.03 and 7.00.
As for `Cc1nnc(C)c2cc(C(=O)Nc3cc4[nH]c([C@H]5CCCCN5C)cc4cn3)ccc12` [Example 93], the pIC50 on ENL YEATS domain was 7.12. The pEC50 in assay [1] (Homo sapiens, 288 h) is 6.84.
At ENL YEATS domain, `CN1C(=O)Cc2ccc(C(=O)Nc3cc4[nH]c([C@H]5CCCCN5C)cc4cn3)cc21` [Example 94] showed a pIC50 of 6.66. Moreover, the pEC50 in assay [1] (Homo sapiens, 288 h) was 6.43.
